Broadly, the IC50 is the midpoint of a concentration-inhibition curve. A lower IC50 goes with inhibition by little substance.

This note sets out measurements from PMC3662054 (Journal of biological inorganic chemistry : JBIC : a …, 2012).

The assay deals with T1, 20S proteasome (chymotrypsin-like activity) (Homo sapiens, UniProt P28074).
T1 sequence (P28074 60-263): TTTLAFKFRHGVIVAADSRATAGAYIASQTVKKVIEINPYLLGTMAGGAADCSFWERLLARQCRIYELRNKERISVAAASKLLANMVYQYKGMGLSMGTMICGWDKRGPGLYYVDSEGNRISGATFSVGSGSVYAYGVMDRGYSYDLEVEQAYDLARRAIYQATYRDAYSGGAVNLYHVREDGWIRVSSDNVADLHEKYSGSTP
As to the kind of experiment: fluorogenic Suc-LLVY-AMC hydrolysis by purified […] proteasome. Format: biochemical.

In turn, `O=C([O-])CCc1c[nH]c2ccccc12.O=C([O-])CCc1c[nH]c2ccccc12.[Cu+2].c1cnc2c(c1)ccc1cccnc12` [compound 6, Complex 6] registered a half-inhibitory concentration (IC50) of 3.3 µM. In other words, the single-digit micromolar range. Consider `O=C([O-])Cc1c[nH]c2ccccc12.O=C([O-])Cc1c[nH]c2ccccc12.O=C([O-])Cc1c[nH]c2ccccc12.O=C([O-])Cc1c[nH]c2ccccc12.[Cu+2].[Cu+2]` [compound 3, Complex 3], for which it took 3 µM to reach half-maximal inhibition (IC50).
